In assay [1] the test system is HaCaT cells. Briefly: m6A methylation level of human keratinocytes (EpiQuik m6A RNA methylation quantification kit). Conditions: for m6A fold change: 24 hours. Format: cell-based. Here is the method:
HaCaT cells were cultured in DMEM culture medium containing 10% fetal bovine serum, 100 U/mL penicillin, and 100 µg/mL streptomycin. Culture dishes were placed in an incubator containing 5% CO2 for culture at 37°C for 24 hours. An equal volume of DMSO was added in control group 1, 50 nM sorafenib, capecitabine, docetaxel, and osimertinib were respectively added in control groups A, B, C, and D, and 400 nM test compounds or nicotinamide were respectively added in sample groups A1, A2, B1, B2, C1, C2, D1, and D2 after the addition of 50 nM corresponding compounds. The cells were continuously cultured for 24 hours, washed with PBS, and then collected by high-speed centrifugation. Total RNA was extracted using Trizol reagent (Sigma Aldrich), and RNA m6A methylation of a sample was quantitatively detected using an EpiQuik m6A RNA methylation quantification kit. The concentrations of positive control samples for a standard curve were 0.01 ng/µl, 0.02 ng/µl, 0.05 ng/µl, 0.1 ng/µl, 0.2 ng/µl, and 0.5 ng/µl. The absorbance at 450 nm was read using a microplate reader (Tecan GENios). A quantitative calculation formula for m6A is as follows: m6A(ng) = (absorbanceofsamplewell−absorbanceofbackroundwell)/slope of standard curve [formula] m6A(%) = m6A(ng)/RNA amount of sample(ng)*100%. [formula]

Assay [2] has as its system HaCaT cells. Briefly: m6A methylation level of drug-treated HaCaT keratinocytes by nanopore sequencing. The class given is cell-based, human. Conditions: 50 nM drug, 24 hours, vs blank control group. As for the experimental part:
1*10^8 HaCaT cells were seeded in culture dishes, into which 50 nM drugs (including sorafenib, capecitabine, docetaxel, and osimertinib) were added, respectively. The cells were cultured in an incubator containing 5% CO2 at 37°C for 24 hours and washed with PBS after culture media were removed. Centrifugation was performed, the supernatant was discarded, and then, 400 µL of an RLT cell lysis buffer (QIAGEN, Cat.#79216) was added. A portion of samples were selected, into which 400 µL of 70% ethanol was added. The mixture was evenly stirred and then transferred to an RNeasy mini column, and RNA was extracted using an RNeasy mini kit (QIAGEN, Cat.#74104). 2 µL of an RNA sample was selected and dissolved in 98 µL of a 10 mM Tris-HCl buffer solution, and the absorbance at 260 nm was measured using a Nanodrop (Thermo Fisher Scientific) to determine the RNA concentration.
40 µg of an RNA sample was selected for enrichment of mRNA (PolyA+RNA) using an NEBNext Poly(A) mRNA magnetic isolation module (NEB, Cat.#E7490), and then, a 3' end of the above enriched mRNA (PolyA+RNA) molecule was ligated with reverse transcription adapter RTA using a direct RNA sequencing kit (Oxford Nanopore Technologies, Cat.#SQK-RNA002). A reverse transcription reaction was performed with the mRNA (PolyA+RNA) molecule as a template to synthesize a complementary strand, a terminal end of the reverse transcription adapter RTA was ligated with a sequencing adapter (RNA adapter) to form a final sequencing library, and quantitative detection was performed using a Qubit™ dsDNA HS assay kit (Invitrogen, Cat.#LOT2133187).
After quality inspection of the library, the prepared sequencing library was loaded onto a PromethION flow cell chip (Oxford Nanopore Technologies, Cat.#FLO-MIN106D), and placed in a PromethION sequencer (Oxford Nanopore Technologies) for sequencing by selecting a matched sequencing mode. Basecalling was performed on sequencing data through guppy, and m6A methylation analysis was performed on original fast5 data.

The mark [3] stands for this setting: 400 nM after 50 nM capecitabine, relative to control group 1.
[4] abbreviates: 400 nM after 50 nM docetaxel, relative to control group 1.
[5] abbreviates: 400 nM after 50 nM osimertinib, relative to control group 1.
Where [6] appears, read: 400 nM after 50 nM sorafenib, relative to control group 1.
Setting [7] is: 50 nM drug alone, relative to control group 1 (DMSO).

As for `NC(=O)[C@H]1CCCc2c1[nH]c1ccc(Cl)cc21` [Compound of formula (I), (S)-6-chloro-2,3,4,9-tetrahydro-1H-carbazole-carboxamide], in the assay with HaCaT cells [1] (400 nM), the “abnormal increase in the RNA m6A level of human keratinocytes caused by chemotherapeutic drugs and multikinase inhibitors” value is “effectively inhibit”. Also, the m6A fold change with HaCaT cells [1] (setting [3]) came out at 1.1 fold; in the assay on HaCaT cells [1] (setting [4]), 1.0 fold; with HaCaT cells [1] (setting [5]) it was 1.2 fold; with HaCaT cells [1] (setting [6]), 1.4 fold.
Take `NC(=O)c1cccnc1` [Nicotinamide, nicotinamide]: the m6A fold change in the assay with HaCaT cells [1] (setting [3]) is 4.5 fold; in the assay on HaCaT cells [1] (setting [4]), 5.4 fold; with HaCaT cells [1] (setting [5]), 5.0 fold; in the assay on HaCaT cells [1] (setting [6]), 4.7 fold.
On to `C=CC(=O)Nc1cc(Nc2nccc(-c3cn(C)c4ccccc34)n2)c(OC)cc1N(C)CCN(C)C` [Osimertinib, osimertinib], for which, in the assay with HaCaT cells [1] (setting [7]), the m6A fold change is 4.8 fold. The “m6A methylation levels of HaCaT cells higher than that of the control group” value in the assay with HaCaT cells [2] is listed as 5.13 fold.
For `CNC(=O)c1cc(Oc2ccc(NC(=O)Nc3ccc(Cl)c(C(F)(F)F)c3)cc2)ccn1` [Sorafenib, sorafenib], in that order: 4.5 fold and 5.05 fold.

Source of the values: patent EP4782431A1 (Suzhou Merna Therapeutics Co. Ltd, priority 2023, dated 2025).
